The structures appear in SMILES notation. Read-outs that look alike come from different tables or passages of the source.

These results are taken from patent US20250145589A1, “PYRIDINE DERIVATIVE AND USE THEREOF” (SICHUAN HUIYU PHARMACEUTICAL CO., LTD., priority 2021, published 2025).

One test concerns the target PI3Kδ (Homo sapiens (Human), UniProt O00329). As to the kind of experiment: Inhibition of PI3Kδ efficacy assay (ADP-Glo kinase assay). Format: biochemical. The note with it: read-out: PI3Kδ inhibitory activity (IC50). The method in brief: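 Luminescent ADP-Glo readout of PI3Kδ: after a 60 min RT reaction with PI/ATP substrate, ATP depletion (40 min) and ADP detection (40 min) steps followed. Compounds tested as eight five-fold serial dilutions; inhibition rates fitted to log(inhibitor) vs. response, variable slope, for IC50.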

The test system of test [1] is MIA PaCa-2 cells (KRAS G12C mutant). As to the kind of experiment: MIA PaCa-2 cell anti-proliferation (CellTiter-Glo). The note with it: Homo sapiens. Format: cell-based. The method, then: The number of viable cells was determined using the CellTiter-Glo® assay to evaluate the anti-proliferation efficacy of compounds. […] The compounds were serially diluted 4-fold in DMSO to obtain 9 concentrations, and then further diluted with DMEM (10% FBS+2.5% horse serum+1% penicillin/streptomycin) cell culture medium to obtain the working solutions (2×), 15 μL of each working solution was added to the cell culture supernatant in each well, and the cells were further incubated for 3 days at 37° C. with 5% CO2. The plate was then equilibrated with CellTiter-Glo® reagent at room temperature (25° C.) for 30 minutes. After adding 25 μL of CellTiter-Glo®, reagent, the cells were thoroughly mixed with the CellTiter-Glo® reagent using a microplate shaker for 2 minutes, and then incubated at room temperature for at least 30 minutes. […] Data were analyzed using GraphPad Prism for IC50 values (Note: The negative control refers to the group without inhibitor).
(Cellular ATP, detected with luciferase, serves as a proxy for viable cell number.)

The subject of test [2] is NCI-H358 cells (KRAS G12C mutant). In words: NCI-H358 cell proliferation inhibition (CellTiter-Glo). Format: cell-based. The conditions noted are these: Homo sapiens, NCI-H358, 72 h; H358 cells (G12C mutation), 3 days, Table 6; read-out: NCI-H358 (IC50).
Another test addresses PI3Kα (Homo sapiens (Human), UniProt P42336). As to the kind of experiment: Inhibition of PI3Kα efficacy assay (ADP-Glo kinase assay). Format: biochemical. The note with it: read-out: PI3Kα inhibitory activity (IC50). The method in brief:
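Eight five-fold dilutions of compound (2 mM DMSO stock) tested; kinase reaction with PI and ATP ran 60 min at RT, followed by ADP-Glo and detection reagent steps of 40 min each. Four-parameter logistic fitting gave IC50 values.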
In general terms: ADP-Glo first removes unused ATP, then detects ADP through luciferase.

The mark [3] stands for this setting: 72 h, MIA Paca-2 cells, 3 days, Table 7, read-out: MIA PaCa-2 (IC50).

Sequence of PI3Kα (P42336 whole entry): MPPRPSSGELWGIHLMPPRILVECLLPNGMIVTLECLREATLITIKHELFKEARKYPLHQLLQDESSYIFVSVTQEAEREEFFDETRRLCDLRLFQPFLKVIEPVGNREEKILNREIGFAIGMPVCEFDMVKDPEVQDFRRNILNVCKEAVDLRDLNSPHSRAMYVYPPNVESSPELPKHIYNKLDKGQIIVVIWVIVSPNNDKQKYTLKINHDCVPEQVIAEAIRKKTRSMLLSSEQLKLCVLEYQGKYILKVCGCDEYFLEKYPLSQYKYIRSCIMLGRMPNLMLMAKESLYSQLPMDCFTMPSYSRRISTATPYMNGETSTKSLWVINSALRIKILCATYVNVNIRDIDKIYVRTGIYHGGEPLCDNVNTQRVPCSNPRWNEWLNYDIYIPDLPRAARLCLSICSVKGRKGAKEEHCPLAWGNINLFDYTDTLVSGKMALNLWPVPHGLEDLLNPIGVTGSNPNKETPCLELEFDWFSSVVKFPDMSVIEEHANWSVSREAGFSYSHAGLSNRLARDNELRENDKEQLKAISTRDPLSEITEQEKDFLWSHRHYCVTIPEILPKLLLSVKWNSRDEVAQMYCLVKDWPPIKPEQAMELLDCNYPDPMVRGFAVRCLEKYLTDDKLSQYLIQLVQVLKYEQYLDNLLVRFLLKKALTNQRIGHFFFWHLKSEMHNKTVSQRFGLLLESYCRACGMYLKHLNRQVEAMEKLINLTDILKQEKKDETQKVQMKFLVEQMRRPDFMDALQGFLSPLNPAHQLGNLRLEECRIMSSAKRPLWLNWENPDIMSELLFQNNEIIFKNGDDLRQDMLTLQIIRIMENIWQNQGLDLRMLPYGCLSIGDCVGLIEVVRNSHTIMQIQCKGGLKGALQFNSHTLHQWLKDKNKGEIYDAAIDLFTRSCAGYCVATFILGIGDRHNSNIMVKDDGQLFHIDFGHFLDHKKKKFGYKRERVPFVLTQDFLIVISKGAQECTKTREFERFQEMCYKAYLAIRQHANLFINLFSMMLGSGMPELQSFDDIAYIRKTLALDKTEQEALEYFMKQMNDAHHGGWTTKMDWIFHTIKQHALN
Sequence of PI3Kα (P27986 whole entry partner): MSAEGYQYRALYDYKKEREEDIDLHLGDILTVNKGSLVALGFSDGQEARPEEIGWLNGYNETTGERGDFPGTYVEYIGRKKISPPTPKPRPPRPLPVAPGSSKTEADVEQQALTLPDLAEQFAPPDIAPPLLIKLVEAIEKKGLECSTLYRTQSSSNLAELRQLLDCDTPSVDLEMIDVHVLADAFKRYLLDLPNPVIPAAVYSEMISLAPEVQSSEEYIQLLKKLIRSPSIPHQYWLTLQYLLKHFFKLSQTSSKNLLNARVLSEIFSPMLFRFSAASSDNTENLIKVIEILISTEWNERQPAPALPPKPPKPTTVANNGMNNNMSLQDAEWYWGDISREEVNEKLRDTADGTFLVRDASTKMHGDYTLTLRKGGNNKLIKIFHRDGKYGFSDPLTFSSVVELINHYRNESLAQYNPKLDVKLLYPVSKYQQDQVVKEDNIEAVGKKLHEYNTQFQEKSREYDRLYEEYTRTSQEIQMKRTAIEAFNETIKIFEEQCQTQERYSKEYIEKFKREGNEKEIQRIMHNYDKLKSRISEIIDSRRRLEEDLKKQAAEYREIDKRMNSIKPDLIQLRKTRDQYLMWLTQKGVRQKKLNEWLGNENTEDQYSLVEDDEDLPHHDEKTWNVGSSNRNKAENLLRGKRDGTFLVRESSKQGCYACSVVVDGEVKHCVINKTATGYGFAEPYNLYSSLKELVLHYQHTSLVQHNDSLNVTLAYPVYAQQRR
Sequence of PI3Kδ (O00329 whole entry): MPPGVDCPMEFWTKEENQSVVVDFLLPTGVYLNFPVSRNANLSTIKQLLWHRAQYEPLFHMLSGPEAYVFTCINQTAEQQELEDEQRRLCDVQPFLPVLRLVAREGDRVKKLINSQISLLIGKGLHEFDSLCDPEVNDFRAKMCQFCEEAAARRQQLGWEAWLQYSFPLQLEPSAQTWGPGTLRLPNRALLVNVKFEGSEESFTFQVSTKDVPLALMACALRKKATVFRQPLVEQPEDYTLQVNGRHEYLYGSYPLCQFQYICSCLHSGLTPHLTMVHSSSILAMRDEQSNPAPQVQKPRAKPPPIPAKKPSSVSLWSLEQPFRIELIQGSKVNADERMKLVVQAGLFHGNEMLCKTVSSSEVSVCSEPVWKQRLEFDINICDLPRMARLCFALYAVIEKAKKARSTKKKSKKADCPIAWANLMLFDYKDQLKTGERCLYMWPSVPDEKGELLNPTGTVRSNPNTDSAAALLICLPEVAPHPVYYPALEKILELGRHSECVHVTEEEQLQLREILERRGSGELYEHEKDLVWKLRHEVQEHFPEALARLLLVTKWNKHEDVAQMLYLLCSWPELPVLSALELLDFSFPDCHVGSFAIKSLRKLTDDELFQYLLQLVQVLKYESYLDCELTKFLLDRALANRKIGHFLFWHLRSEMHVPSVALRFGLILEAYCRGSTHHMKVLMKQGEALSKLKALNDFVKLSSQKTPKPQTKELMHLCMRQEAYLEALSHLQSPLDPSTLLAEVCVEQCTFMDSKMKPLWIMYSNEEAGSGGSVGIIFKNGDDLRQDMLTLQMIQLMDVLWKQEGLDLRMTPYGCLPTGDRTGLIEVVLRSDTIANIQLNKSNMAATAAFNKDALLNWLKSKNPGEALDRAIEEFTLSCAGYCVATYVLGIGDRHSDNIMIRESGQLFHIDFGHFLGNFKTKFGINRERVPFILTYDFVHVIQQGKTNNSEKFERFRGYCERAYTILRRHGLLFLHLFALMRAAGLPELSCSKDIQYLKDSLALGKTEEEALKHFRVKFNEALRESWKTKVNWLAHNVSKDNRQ
Sequence of PI3Kδ (P27986 whole entry partner): as the sequence (P27986 whole entry partner) above

As for `COc1ncc(-c2ccc3ncnc(N4CCN(C(=O)/C=C/C(C)=O)CC4)c3c2)cc1NS(=O)(=O)c1cccc2cccc(Cl)c12` [Example 96, (E)-8-chloro-N-(2-methoxy-5-(4-(4-(4-oxopent-2-enoyl)piperazin-1-yl)quinazolin-6-yl)pyridin-3-yl)naphthalene-1-sulfonamide], the IC50 – broadly, the point on the concentration scale where inhibition reaches its midpoint – worked out at 171 nM at PI3Kδ (Table 2), 90 nM in test [1] (setting [3]), 35.8 nM in test [2] and 1 nM at PI3Kα (Table 2).

`COc1ncc(-c2ccc3ncnc(N4CCN(C(=O)/C=C/C(C)=O)CC4)c3n2)cc1NS(=O)(=O)c1sc(C)nc1C` [Example 222, (E)-N-(2-methoxy-5-(4-(4-(4-oxopent-2-enoyl)piperazin-1-yl)pyrido[3,2-d]pyrimidin-6-yl)pyridin-3-yl)-2,4-dimethyl-thiazole-5-sulfonamide]: the IC50 at PI3Kδ (Table 4) was 11.7 nM; in test [1] (setting [3]), 29.1 nM; in test [2], 35.1 nM; at PI3Kα (Table 4), 0.49 nM.

Take `C=CC(=O)N1CCC(Nc2ncnc3ccc(-c4cnc(Cl)c(NS(=O)(=O)c5ccc(F)cc5F)c4)nc23)CC1` [Example 2, N-(5-(4-((1-acryloylpiperidin-4-yl)amino)pyrido[3,2-d]pyrimidin-6-yl)-2-chloropyridin-3-yl)-2,4-difluorobenzenesulfonamide]: the IC50 was found to be 41.8 nM at PI3Kδ (Table 1), 485 nM in test [1] (setting [3]), 485 nM in test [2] and 7.3 nM on PI3Kα (Table 1).

As for `C=CC(=O)N1CCN(c2ncnc3ccc(-c4cnc(OC)c(NS(C)(=O)=O)c4)cc23)CC1` [Example 4, N-(5-(4-(4-acryloylpiperazin-1-yl)quinazolin-6-yl)-2-methoxypyridin-3-yl)methanesulfonamide], the IC50 was 12 nM at PI3Kδ (Table 1), 494 nM in test [1] (setting [3]), 494 nM in test [2] and 9.5 nM at PI3Kα (Table 1).

Turning to `COc1ncc(-c2ccc3ncnc(N4CCN(C(=O)/C(C#N)=C/C(C)(C)C)CC4)c3c2)cc1NS(=O)(=O)c1ccc(F)cc1F` [Example 180, (E)-N-(5-(4-(4-(2-cyano-4,4-dimethyl-pent-2-enoyl)piperazin-1-yl)quinazolin-6-yl)-2-methoxy-pyridin-3-yl)-2,4-difluoro-benzene-sulfonamide], the IC50 in test [1] (setting [3]) came out at 45.2 nM; in test [2], 114 nM; on PI3Kα (Table 4) it was 1.8 nM.

For the compound `COc1ncc(-c2ccc3ncnc(N4CCN(C(=O)/C=C/C(C)=O)CC4)c3c2)cc1S(=O)(=O)Nc1ccc(F)cc1F` [Example 166, (E)-N-(2,4-difluorophenyl)-2-methoxy-5-(4-(4-(4-oxopent-2-enoyl)piperazin-1-yl)quinazolin-6-yl)pyridine-3-sulfonamide], the IC50 on PI3Kδ (Table 4) was found to be 22.3 nM; in test [1] (setting [3]) it was 369 nM; in test [2], 344 nM; at PI3Kα (Table 4), 16.1 nM.

As to `COc1ncc(-c2cc3c(N4CCN(C(=O)/C=C/C(C)=O)CC4)ncnc3cn2)cc1NS(=O)(=O)c1ccc(F)cc1F` [Example 245, (E)-2,4-difluoro-N-(2-methoxy-5-(4-(4-(4-oxopent-2-enoyl)piperazin-1-yl)pyrido[3,4-d]pyrimidin-6-yl)pyridin-3-yl)benzenesulfonamide], the IC50 was 827 nM in test [1] (setting [3]), 497 nM in test [2] and 14.9 nM at PI3Kα (Table 4).

As to `COc1ncc(-c2ccc3ncnc(C4=CCN(C(=O)/C=C/C(C)=O)CC4)c3n2)cc1NS(=O)(=O)c1ccc(F)cc1F` [Example 240, (E)-2,4-difluoro-N-(2-methoxy-5-(4-(1-(4-oxopent-2-enoyl)-1,2,3,6-tetrahydropyridin-4-yl)pyrido[3,2-d]pyrimidin-6-yl)pyridin-3-yl)benzenesulfonamide], the 50% inhibitory concentration (IC50) in test [1] (setting [3]) stood at 55.2 nM; in test [2], 48.7 nM; at PI3Kα (Table 4), 5 nM.

As for `COc1ncc(-c2cc(F)c3ncnc(N4CCN(C(=O)/C=C/C(C)=O)CC4)c3c2)cc1NS(=O)(=O)c1ccc(F)cc1F` [Example 196, (E)-2,4-difluoro-N-(5-(8-fluoro-4-(4-(4-oxopent-2-enoyl)piperazin-1-yl)quinazoline-6-yl)-2-methoxypyridin-3-yl)benzenesulfonamide], the IC50 in test [1] (setting [3]) was found to be 155 nM; in test [2], 186 nM; on PI3Kα (Table 4), 1.7 nM.

With `CC(=O)/C=C/C(=O)N1CCN(c2ncnc3ccc(-c4cnc(C)c(NS(=O)(=O)c5ccc(F)cc5F)c4)cc23)CC1` [Example 188, (E)-2,4-difluoro-N-(2-methyl-5-(4-(4-(4-oxopent-2-enoyl)piperazin-1-yl)quinazolin-6-yl)pyridin-3-yl)benzene-sulfonamide], the IC50 came out at 865 nM in test [1] (setting [3]), 530 nM in test [2] and 3.3 nM at PI3Kα (Table 4).

Regarding `CC(=O)/C=C/C(=O)N1CCN(c2ncnc3ccc(-c4cnc(OC(F)F)c(NS(=O)(=O)c5ccc(F)cc5F)c4)cc23)CC1` [Example 208, (E)-N-(2-(difluoromethoxy)-5-(4-(4-(4-oxopent-2-enoyl)piperazin-1-yl)quinazoline-6-yl)pyridin-3-yl)-2,4-difluorobenzenesulfonamide], the IC50 stood at 1040 nM in test [1] (setting [3]), 1060 nM in test [2] and 30.6 nM at PI3Kα (Table 4).

With `COc1ncc(-c2ccc3ncnc(C4=CCN(C(=O)/C=C/C(C)=O)CC4)c3n2)cc1NS(=O)(=O)c1ccccc1F` [Example 238, (E)-2-fluoro-N-(2-methoxy-5-(4-(1-(4-oxopent-2-enoyl)-1,2,3,6-tetrahydropyridin-4-yl)pyrido[3,2-d]pyrimidin-6-yl)pyridin-3-yl)benzenesulfonamide], the IC50 in test [1] (setting [3]) amounted to 79.5 nM; in test [2] it was 65.8 nM; on PI3Kα (Table 4) it was 3.1 nM.

Regarding `COc1ncc(-c2cc(C(F)(F)F)c3ncnc(N4CCN(C(=O)/C=C/C(C)=O)CC4)c3c2)cc1NS(=O)(=O)c1ccc(F)cc1F` [Example 243, (E)-2,4-difluoro-N-(2-methoxy-5-(4-(4-(4-oxopent-2-enoyl)piperazin-1-yl)-8-(trifluoromethyl)quinazolin-6-yl)pyridin-3-yl)benzenesulfonamide], the IC50 in test [1] (MIA PaCa-2, 72 h, read-out: MIA PaCa-2 (IC50, nM)) was found to be 393 nM; in test [2], 720 nM; on PI3Kα (Table 4), 838 nM.

Turning to `COc1ncc(-c2ccc3ncnc(N4CCN(C(=O)/C=C/CF)CC4)c3n2)cc1NS(=O)(=O)c1c(F)cccc1F` [Example 213, (E)-2,6-difluoro-N-(5-(4-(4-(4-fluorobut-2-enoyl)piperazin-1-yl)pyrido[3,2-d]pyrimidine-6-yl)-2-methoxy-pyridin-3-yl) benzene-sulfonamide], the results for the IC50 (in test [1] (setting [3]); in test [2]; at PI3Kα (Table 4)) were 16.4 nM, 14.3 nM and 9.8 nM, respectively.
